Target: T1, XC transporter (Homo sapiens, UniProt Q9UPY5)
T1 construct: endogenous in cells; host or cells: U251 cell line
T1 sequence (Q9UPY5 1-501): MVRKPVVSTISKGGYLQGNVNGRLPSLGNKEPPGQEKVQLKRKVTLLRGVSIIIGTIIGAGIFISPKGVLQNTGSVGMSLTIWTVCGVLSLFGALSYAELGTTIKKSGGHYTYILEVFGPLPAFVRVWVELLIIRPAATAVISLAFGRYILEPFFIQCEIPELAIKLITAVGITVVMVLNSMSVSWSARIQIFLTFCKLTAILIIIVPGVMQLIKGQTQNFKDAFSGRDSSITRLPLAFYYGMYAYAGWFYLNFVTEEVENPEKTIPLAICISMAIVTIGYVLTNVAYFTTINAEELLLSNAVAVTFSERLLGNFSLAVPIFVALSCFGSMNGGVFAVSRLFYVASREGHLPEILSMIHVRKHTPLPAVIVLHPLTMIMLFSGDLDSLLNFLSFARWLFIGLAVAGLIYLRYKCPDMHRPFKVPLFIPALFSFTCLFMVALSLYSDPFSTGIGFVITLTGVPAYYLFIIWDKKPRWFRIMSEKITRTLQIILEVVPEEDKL
T1 sequence (P08195 1-529 partner): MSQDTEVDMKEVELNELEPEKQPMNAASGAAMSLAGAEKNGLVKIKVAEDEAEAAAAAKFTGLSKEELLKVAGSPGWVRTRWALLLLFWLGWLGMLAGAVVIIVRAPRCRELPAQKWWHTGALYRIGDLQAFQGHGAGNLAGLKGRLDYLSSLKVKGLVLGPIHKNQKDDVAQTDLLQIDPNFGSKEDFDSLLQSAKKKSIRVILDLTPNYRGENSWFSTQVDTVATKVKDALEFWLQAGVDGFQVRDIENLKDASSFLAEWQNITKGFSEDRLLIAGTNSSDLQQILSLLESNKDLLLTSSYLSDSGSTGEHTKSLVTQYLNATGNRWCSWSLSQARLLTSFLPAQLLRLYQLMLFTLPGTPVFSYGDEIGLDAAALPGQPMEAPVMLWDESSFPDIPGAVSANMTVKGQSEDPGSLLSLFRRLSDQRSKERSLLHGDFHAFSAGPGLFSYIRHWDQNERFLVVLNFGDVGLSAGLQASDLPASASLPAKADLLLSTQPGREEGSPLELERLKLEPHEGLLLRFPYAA
Experiment: Blocking studies of cellular uptake with sulfasalazine (SAS) or cysteine
Format: cell-based
Conditions: U251 cells, 2 hours incubation
Method: The cellular uptake of the ^99mTc-SAC-A and the ^99mTc-SAC-B compounds were performed using an U251 cell line. The cells were planted onto tissue culture plates at a concentration of 350,000 cells per well for the uptake and blocking studies. The cells were cultured in Eagle's MEM with Earle's BSS (90%) and fetal bovine serum (10%) under standard culture conditions (37° C., 95% humidified air and 5% CO2). After seeding, the cells were incubated at 37° C. for 48 hours to allow for cell attachment and growth. After reaching approximately 70% confluency of cells, the cells are ready for use in the cellular uptake/blocking experiments.
Specifically, upon reaching 70% cell confluency, the growth media were aspirated and the cells were washed twice with phosphate buffered saline (PBS). Serum-free media and the ^99mTc-SAC-A compound or ^99mTc-SAC-B compound obtained above were respectfully added to the each of the wells for performing the cellular uptake experiment. For the blocking studies, the cells were pre-treated with 500 μM and 1000 μM of sulfasalazine (SAS; a XC transporter specific inhibitor) or 500 μM and 1000 μM of cysteine (a competitive inhibitor) for 30 minutes prior to the addition of the ^99mTc-SAC-A or ^99mTc-SAC-B compounds. […] After 2 hours, the cells in each of the wells are washed with PBS, the cells are then collected and its radioactivity were counted using a gamma counter. […]

SMILES: N[C@@H](CS[C@@H](CC(=O)O)C(=O)O)C(=O)O [SAC-B]
- cellular uptake when blocking agent cysteine (competitive inhibitor) was added (500 μM and 1000 μM cysteine pre-treatment 30 min): mostly inhibited
- cellular uptake when blocking agent SAS (XC transporter specific inhibitor) was added (500 μM and 1000 μM sulfasalazine pre-treatment 30 min): mostly inhibited

— patent US20180326101A1, “COMPOUND AND PHARMACEUTICAL COMPOSITION FOR TARGETED DRUG DELIVERY” (SeeCure Taiwan Co., Ltd., priority 2017, published 2018)
